Assay in all cases: inhibition of tumour cell growth, NCI panel, 48 h
For assay [1], the system named is MOLT-4 leukemia.
Assay [2] concerns TK-10 renal.
For assay [3], the system named is RXF 393 renal.
Assay [4] relates to UO-31 renal.
The test system of assay [5] is LOX IMVI melanoma.
Assay [6] has as its system OVCAR-8 ovarian.
For assay [7], the system named is 786-0 renal.
Assay [8] relates to NCI-H226 lung.
The subject of assay [9] is HOP-92 NSCLC.
Assay [10] has as its system KM12 colon.

Structures are written as SMILES.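 Test compounds were applied to cells in 96-well plates for 48 hours at 5 doses. GI50 = concentration required for 50% inhibition of growth. TGI marks complete inhibition of growth.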

Regarding `O=C1NC(=O)/C(=C/C=C/c2ccccc2)S1`, the GI50 in [1] is 2.08 µM; in assay [2] it was 28.6 µM; in [3], 4.95 µM; in assay [4], 2.81 µM; in assay [5], 0.999 µM; in assay [6], 3.48 µM. The GI50 in assay [7] was 0.366 µM; in [8] it was 14 µM; in assay [9], 11.1 µM; in assay [10] it was 8.25 µM. Besides, the TGI in assay [1] was more than 72 µM; in [2], more than 100 µM; in assay [3], 27.8 µM; in assay [4] it was 30.4 µM; in assay [5] it was 14.7 µM; in [6], more than 100 µM. The TGI in assay [7] was 4.27 µM; in assay [8], more than 80.8 µM; in assay [9], more than 81.1 µM; in [10], 21.8 µM.

In the case of `CC[C@@]1(O)C(=O)NCc2c1cc1n(c2=O)Cc2cc3ccccc3nc2-1`, the GI50 is 0.3 µM in assay [1]; more than 100 µM in [2]; 6.11 µM in [3]; 1.77 µM in assay [4]; 2.06 µM in assay [5]; 2.12 µM in assay [6]. In addition, the GI50 in assay [7] is 1.63 µM; in assay [8], more than 100 µM; in assay [10], more than 50.6 µM. The TGI in assay [1] was 2.2 µM; in assay [2], more than 100 µM; in assay [3] it was more than 80.6 µM; in assay [4], 13.1 µM; in assay [5], more than 100 µM; in assay [6] it was more than 44.8 µM. The TGI is 9.93 µM in assay [7], more than 100 µM in [8], more than 29.4 µM in assay [9] and more than 100 µM in assay [10].

As to `C=C1CCC2C3(C)COC(c4ccc(NC(C)=O)cc4)OC3CCC2(C)C1C/C=C1/C(=O)OCC1O` (centres undefined), the GI50 is 2.32 µM in assay [1]; 6.25 µM in [2]; 46.9 µM in assay [3]; 5.43 µM in [4]; 21 µM in [5]; 7.76 µM in [6]. Besides, the GI50 is more than 100 µM in assay [7], 26.3 µM in assay [8], 3.83 µM in assay [9] and 5.07 µM in assay [10]. The TGI in assay [1] was 24.9 µM; in [2], more than 100 µM; in assay [3] it was more than 100 µM; in [4] it was more than 100 µM; in assay [5] it was more than 100 µM; in assay [6], more than 100 µM. Also, the TGI in assay [7], in assay [8], in assay [9] and in [10] was more than 100 µM in each case.

Regarding `Cc1cccc(NC(=O)C(=O)C2C(=O)NC(=O)NC2=O)c1C`, the TGI in assay [1], in assay [2], in assay [3], in assay [4], in [5] and in [6] was more than 100 µM in each case. Moreover, the TGI in [7], in [8], in [9] and in assay [10] was more than 100 µM throughout.

Consider `Oc1ccc2oc3ncc(Cl)c(-c4ccccc4)c3c2c1`, for which the GI50 in [1], in [2], in [3], in [4], in [5] and in [6] was more than 100 µM each time. Further, the GI50 was 0.0939 µM in assay [7], more than 100 µM in assay [8], more than 100 µM in assay [9] and more than 100 µM in [10]. For the same compound, the TGI in [1], in assay [2], in assay [3], in assay [4], in assay [5] and in [6] was more than 100 µM in each case. Moreover, the TGI in assay [7], in [8], in assay [9] and in assay [10] was more than 100 µM in each case.

On to `COc1ccc(N2CCN(C(=O)c3ccccc3Nc3ccnc(C(F)(F)F)c3)CC2)cc1`, for which the GI50 in [1] was 29.3 µM; in assay [2], 54.7 µM; in assay [3], 99.9 µM; in assay [4], 28 µM; in assay [5], 60.1 µM; in assay [6], 40.7 µM. Further, the GI50 is more than 100 µM in assay [7], 96.5 µM in assay [8], 5.33 µM in [9] and 76.9 µM in assay [10]. For the same compound, the TGI in [1], in assay [2], in assay [3], in assay [4], in assay [5] and in assay [6] was more than 100 µM in each case. Also, the TGI in [7] is more than 100 µM; in assay [8], more than 100 µM; in [9] it was 68.8 µM; in [10], more than 100 µM.

For the compound `COc1ccc(SC2c3cc(OC)c(OC)cc3Oc3nc(N)c(C#N)c(N)c32)cc1` (centres undefined), the GI50 is 0.315 µM in assay [1]; 1.63 µM in assay [2]; 0.74 µM in assay [3]; 1.34 µM in assay [4]; 0.585 µM in assay [5]; 1.69 µM in [6]. The GI50 was 0.493 µM in assay [7], 1.37 µM in [8], 1.24 µM in [9] and 1.53 µM in assay [10]. For the same compound, the TGI in [1] was 1.6 µM; in [2], 3.01 µM; in assay [3], 2.01 µM; in [4], 2.61 µM; in assay [5] it was 1.86 µM; in assay [6], 3.18 µM. Further, the TGI in [7] came to 1.73 µM; in assay [8], 2.68 µM; in [9], 2.72 µM; in [10], 3.05 µM.

Consider `CC(=O)Oc1ccc(OC(C)=O)c2ccccc12`, for which the GI50 in assay [1] was 2.46 µM; in [2] it was 17.2 µM; in [3], 7.57 µM; in assay [4], 2.14 µM; in [5] it was 14.8 µM; in [6], 6.66 µM. Besides, the GI50 in [7] was 16.6 µM; in assay [8], 14.4 µM; in assay [9], 1.49 µM; in assay [10], 10.9 µM. The TGI is 8.38 µM in [1]; 31.5 µM in [2]; 20.2 µM in [3]; 16.1 µM in [4]; 30.7 µM in assay [5]; 22.7 µM in assay [6]. Besides, the TGI in assay [7] was found to be 30.5 µM; in [8], 31.3 µM; in [9], 3.05 µM; in assay [10], 23.4 µM.

(Values after PubChem BioAssay (NCI).)
